Common to all, as to assay type: cell-based
Test [1] deals with T1, P2XA (Dictyostelium discoideum, UniProt Q86JM7).
T1 construct: humanized cDNA, full length, C-terminal EYMPME (EE) tag, pcDNA3.1, transient expression in HEK293 cells
T1 sequence (Q86JM7 1-378): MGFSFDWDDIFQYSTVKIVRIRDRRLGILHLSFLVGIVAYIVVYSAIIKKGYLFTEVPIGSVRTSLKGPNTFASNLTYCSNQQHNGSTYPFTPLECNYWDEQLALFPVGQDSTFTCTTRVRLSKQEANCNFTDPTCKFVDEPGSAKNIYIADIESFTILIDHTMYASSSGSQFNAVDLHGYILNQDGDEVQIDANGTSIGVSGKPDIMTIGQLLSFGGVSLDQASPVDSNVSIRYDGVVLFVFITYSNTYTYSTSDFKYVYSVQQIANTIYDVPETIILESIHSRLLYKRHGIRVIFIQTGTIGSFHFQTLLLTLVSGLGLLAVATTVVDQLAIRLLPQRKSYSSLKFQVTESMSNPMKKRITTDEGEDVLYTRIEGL
Put plainly: whole-cell patch clamp, ADP-evoked current, HEK293 cells. The note with it: weak agonist; external and internal Na+; authors note possible ATP impurity in commercial nucleotides. On the technique in general: In patch-clamp work, channel activity is measured electrically.

A further test deals with T2, P2XE (Dictyostelium discoideum, UniProt Q54JH4).
T2 construct: humanized cDNA (Genscript), full length, C-terminal EYMPME (EE) tag, pcDNA3.1, transient expression in HEK293 cells
T2 sequence (Q54JH4 1-388): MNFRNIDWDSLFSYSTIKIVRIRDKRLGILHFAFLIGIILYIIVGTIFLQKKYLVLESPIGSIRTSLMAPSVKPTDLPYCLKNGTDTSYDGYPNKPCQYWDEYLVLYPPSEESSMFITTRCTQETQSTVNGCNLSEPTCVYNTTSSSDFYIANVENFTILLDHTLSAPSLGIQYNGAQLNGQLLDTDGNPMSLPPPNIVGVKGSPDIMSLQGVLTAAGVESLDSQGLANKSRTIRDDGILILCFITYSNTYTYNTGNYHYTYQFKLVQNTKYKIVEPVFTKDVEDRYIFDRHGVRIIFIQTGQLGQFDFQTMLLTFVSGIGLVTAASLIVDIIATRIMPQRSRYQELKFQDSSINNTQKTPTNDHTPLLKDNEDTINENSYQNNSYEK
Put plainly: whole-cell patch clamp, ATP-evoked current, HEK293 cells.

In the next test the target is T3, P2XB (Dictyostelium discoideum, UniProt Q553Y1).
T3 construct: humanized cDNA (Genscript), full length, C-terminal EYMPME (EE) tag, pcDNA3.1, transient expression in HEK293 cells
T3 sequence (Q553Y1 1-369): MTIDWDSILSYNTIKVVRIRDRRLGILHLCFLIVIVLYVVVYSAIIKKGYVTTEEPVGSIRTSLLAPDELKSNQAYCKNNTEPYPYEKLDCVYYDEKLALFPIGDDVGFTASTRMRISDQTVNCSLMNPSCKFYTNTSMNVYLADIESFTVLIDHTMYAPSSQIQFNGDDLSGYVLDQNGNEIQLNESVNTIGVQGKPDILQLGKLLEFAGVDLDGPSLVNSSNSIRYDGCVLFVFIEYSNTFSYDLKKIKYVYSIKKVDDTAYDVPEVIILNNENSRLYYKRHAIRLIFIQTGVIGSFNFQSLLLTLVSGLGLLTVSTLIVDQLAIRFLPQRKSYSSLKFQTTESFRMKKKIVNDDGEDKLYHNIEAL
Described as above.

In test [2] the target is T1, P2XA. Described as above.
The target of the next test is T4, P2XD (Dictyostelium discoideum, UniProt Q54J33).
T4 construct: humanized cDNA (Genscript), full length, C-terminal EYMPME (EE) tag, pcDNA3.1, transient expression in HEK293 cells
T4 sequence (Q54J33 1-407): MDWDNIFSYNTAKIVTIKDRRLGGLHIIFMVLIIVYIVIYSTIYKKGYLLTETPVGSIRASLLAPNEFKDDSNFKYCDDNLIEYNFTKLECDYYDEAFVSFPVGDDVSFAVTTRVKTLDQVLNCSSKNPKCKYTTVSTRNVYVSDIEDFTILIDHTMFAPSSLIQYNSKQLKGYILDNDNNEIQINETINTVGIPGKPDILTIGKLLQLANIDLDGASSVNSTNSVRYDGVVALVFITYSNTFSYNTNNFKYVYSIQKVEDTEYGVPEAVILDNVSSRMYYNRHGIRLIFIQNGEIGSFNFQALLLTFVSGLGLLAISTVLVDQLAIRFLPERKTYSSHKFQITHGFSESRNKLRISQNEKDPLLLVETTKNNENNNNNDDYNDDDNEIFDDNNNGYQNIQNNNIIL
The description is as above.

As for `Nc1ncnc2c1ncn2[C@@H]1O[C@H](COP(=O)(O)OP(=O)(O)O)[C@@H](O)[C@H]1O` [ADP], at P2XA [1], the “% of ATP current at 3 mM” value is ~ 10%.

Take `Nc1ncnc2c1ncn2[C@@H]1O[C@H](COP(=O)(O)OP(=O)(O)OP(=O)(O)O)[C@@H](O)[C@H]1O` [ATP]: the EC50 (in general, the concentration giving half of the maximal effect) is roughly 0.3 mM on P2XE, roughly 3 mM at P2XB, 0.158 mM at P2XA [2] and roughly 3 mM on P2XD.

The values above are taken from paper PMC3774368, “Functional Properties of Five Dictyostelium discoideum P2X Receptors” (The Journal of Biological Chemistry, 2013).
